Assay results taken from patent US12084458B2, “Substituted pyridines, pyridazines, and pyrimidines as TYK2 inhibitors” (Sudo Biosciences Limited, priority 2021, dated 2024).
pIC50: −log10 of the molar value.

Tests used:
Type in all cases: cell-based
[1] = tested on: HEK-Blue IL-2 reporter cells (IL-2-stimulated STAT5 SEAP reporter); assay: HEK-Blue IL-2 SEAP reporter assay for determining selectivity; details: 4 ng/mL human recombinant IL-2
Method: (§1) Example B-3: HEK-Blue™ IL-2 and IFNγ Reporter Assays for Determining Selectivity
(§2) HEK-Blue™ IL-2 and IFNγ reporter cells with a stably-integrated cytokine receptor and STAT5 or STAT1 express STAT-inducible secreted embryonic alkaline phosphatase (SEAP) reporter gene upon cytokine stimulation. These cells were plated in DMEM (Gibco) containing 10% heat-inactivated FBS (Gibco) and 100 U/mL PenStrep (Gibco) at 37° C. under 5% CO2 conditions for 20-22 hours. The cells were then pretreated with serially diluted test compounds for 60 min prior to stimulation with either 4 ng/mL human recombinant IL-2 (Miltenyl Biotech) or 50 ng/mL human recombinant IFNγ (InvivoGen) for 24 hours. SEAP induction was measured using the QUANTI-Blue™ Solution (InvivoGen) according to the manufacturer's instructions.

[2] = tested on: HEK-Blue IL-23 cells (IL-23-stimulated STAT3 SEAP reporter; TYK2 JH2); assay: HEK-Blue IL-23 SEAP reporter assay for profiling TYK2 pseudokinase (JH2) inhibition; details: 10 ng/mL human recombinant IL-23, SEAP reporter, read-out: IL23 (TYK2 inhibitory activity, IC50)
Method: (§3) Example B-1: HEK-Blue™ IL-23 and IFNα/β Reporter Assays for Profiling TYK2 Pseudokinase (JH2) Inhibition
(§4) HEK-Blue™ IL-23 and IFNα/β cells with a stably-integrated cytokine receptor and STAT3 or STAT1 express STAT-inducible secreted embryonic alkaline phosphatase (SEAP) reporter gene upon cytokine stimulation. These cells are plated in DMEM (Gibco) containing 10% heat-inactivated FBS (Gibco) and 100 U/mL PenStrep (Gibco) at 37° C. under 5% CO2 conditions for 20-22 hours. The cells are then pretreated with serially diluted test compounds for 60 min prior to stimulation with either 10 ng/mL human recombinant IL-23 (Miltenyl Biotech) or 1 ng/mL human recombinant IFNα (InvivoGen) for 22-24 hours for IL-23 or 16-18 h for IFNα. SEAP induction is measured using the QUANTI Blue™ Solution (InvivoGen) according to the manufacturer's instructions.

[3] = tested on: HEK-Blue IFNγ reporter cells (IFNγ-stimulated STAT1 SEAP reporter); assay: HEK-Blue IFNγ SEAP reporter assay for determining selectivity; details: Homo sapiens, HEK-Blue, 50 ng/mL human recombinant IFNγ, read-out: IFN-γ (SEAP selectivity, IC50)
Method: as §1, §2

[4] = tested on: HEK-Blue IFNα/β cells (IFNα-stimulated STAT1 SEAP reporter; TYK2 JH2); assay: HEK-Blue IFNα/β SEAP reporter assay for profiling TYK2 pseudokinase (JH2) inhibition; set-up: IFNα (TYK2 inhibitory activity, IC50): scale not given here; details: 1 ng/mL human recombinant IFNα; for pIC50: Homo sapiens, HEK-Blue, read-out: IFNα (TYK2 inhibitory activity, IC50)
Method: as §3, §4

Row | SMILES | pIC50 [1] | pIC50 [2] | pIC50 [3] | pIC50 [4] | IFNα (TYK2 inhibitory activity, IC50) [4]
1 | [2H]C([2H])([2H])NC(=O)c1nnc(NC(=O)C2CC2)cc1Nc1cccc2c1N(C)[C@@H](C)c1nc(C)nn1-2 (single isomer, unassigned) [Compound 22] | < 6.00 | > 7.52 | 6.00 to 6.52 | > 7.52 | 
2 | [2H]C([2H])([2H])NC(=O)c1cnc(NC(=O)C2CC2)cc1Nc1cccc2c1N(C)[C@@H](C)c1nc(C)nn1-2 (single isomer, unassigned) [Compound 25] | < 6.00 | > 7.52 | < 6.00 | > 7.52 | 
3 | [2H]C([2H])([2H])NC(=O)c1cnc(NC(=O)NC)cc1Nc1cccc2c1N(C)[C@@H](C)c1nn(C)nc1-2 (single isomer, unassigned) [Compound 55] | < 6.00 | > 7.52 | < 6.00 | > 7.52 | 
4 | [2H]C([2H])([2H])NC(=O)c1cnc(NC(=O)NC)cc1Nc1cccc2c1N(C)[C@H](C)c1nn(C)nc1-2 (single isomer, unassigned) [Compound 56] | < 6.00 | 6.52 to 7.52 | < 6.00 | < 6.00 | 
5 | [2H]C([2H])([2H])NC(=O)c1cnc(NC(=O)C2CC2)cc1Nc1cccc2c1N(C)[C@@H](C)c1nn(C)nc1-2 (single isomer, unassigned) [Compound 57] | < 6.00 | > 7.52 | < 6.00 | > 7.52 | 
6 | [2H]C([2H])([2H])NC(=O)c1nnc(NC(=O)C2CC2)cc1Nc1cccc2c1N(C)[C@@H](C)c1nn(C)nc1-2 (single isomer, unassigned) [Compound 60] | < 6.00 | > 7.52 | < 6.00 | > 7.52 | 
7 | [2H]C([2H])([2H])NC(=O)c1nnc(NC(=O)NC)cc1Nc1cccc2c1N(C)[C@@H](C)c1nn(C)nc1-2 (single isomer, unassigned) [Compound 62] | < 6.00 | > 7.52 | < 6.00 | > 7.52 | 
8 | [2H]C([2H])([2H])NC(=O)c1nnc(NC(=O)C2CC2)cc1Nc1nccc2c1N(C)[C@@H](C)c1nn(C)nc1-2 (single isomer, unassigned) [Compound 94] | < 6.00 | > 7.52 | 6.00 to 6.52 | > 7.52 | 
9 | [2H]C([2H])([2H])NC(=O)c1nnc(NC(=O)C2CC2)cc1Nc1nccc2c1N(C)[C@H](C)c1nn(C)nc1-2 (single isomer, unassigned) [Compound 95] | < 6.00 | > 7.52 | < 6.00 | 6.52 to 7.52 | 
10 | [2H]C([2H])([2H])NC(=O)c1nnc(NC(=O)NC)cc1Nc1nccc2c1N(C)[C@@H](C)c1nn(C)nc1-2 (single isomer, unassigned) [Compound 100] | < 6.00 | > 7.52 | < 6.00 | > 7.52 | 
11 | [2H]C([2H])([2H])NC(=O)c1cnc(Nc2ccc(F)cn2)cc1Nc1cccc2c1N(C)Cc1nc(C)nn1-2 [Compound 27, 4-((2,5-dimethyl-4,5-dihydro-[1,2,4]triazolo[1,5-a]quinoxalin-6-yl)amino)-6-((5-fluoropyridin-2-yl)amino)-N-(methyl-d3)nicotinamide] | < 6.00 | > 7.52 | 6.00 to 6.52 |  | 
12 | [2H]C([2H])([2H])NC(=O)c1cnc(NC(=O)N(C)C)cc1Nc1cccc2c1N(C)Cc1nn(C)nc1-2 [Compound 51, 4-((2,5-dimethyl-4,5-dihydro-2H-[1,2,3]triazolo[4,5-c]quinolin-6-yl)amino)-6-(3,3-dimethylureido)-N-(methyl-d3)nicotinamide] | < 6.00 | > 7.52 |  |  | 
13 | [2H]C([2H])([2H])NC(=O)Nc1cc(Nc2cccc3c2N(C)Cc2nn(C)nc2-3)c(C(=O)NC([2H])([2H])[2H])cn1 [Compound 67, 4-((2,5-dimethyl-4,5-dihydro-2H-[1,2,3]triazolo[4,5-c]quinolin-6-yl)amino)-N-(methyl-d3)-6-(3-(methyl-d3)ureido)nicotinamide] | < 6.00 | > 7.52 |  | > 7.52 | 
14 | [2H]C([2H])([2H])NC(=O)c1cnc(N(C)C(=O)C2CC2)cc1Nc1cccc2c1N(C)Cc1nc(C)nn1-2 [Compound 82, 4-((2,5-dimethyl-4,5-dihydro-[1,2,4]triazolo[1,5-a]quinoxalin-6-yl)amino)-N-(methyl-d3)-6-(N-methylcyclopropanecarboxamido)nicotinamide] |  | < 6.00 |  | < 6.00 | 
15 | [2H]C([2H])([2H])NC(=O)c1cnc(NC(=O)C2CC2)cc1Nc1ccnc2c1N(C)Cc1nc(C)nn1-2 [Compound 86, 6-(cyclopropanecarboxamido)-4-((2,5-dimethyl-4,5-dihydropyrido[3,2-e][1,2,4]triazolo[1,5-a]pyrazin-6-yl)amino)-N-(methyl-d3)nicotinamide] |  | 6.52 to 7.52 |  | 6.00 to 6.52 | 
16 | [2H]C([2H])([2H])NC(=O)c1nnc(NC(=O)C2CC2)cc1Nc1ccnc2c1N(C)Cc1nc(C)nn1-2 [Compound 87, 6-(cyclopropanecarboxamido)-4-((2,5-dimethyl-4,5-dihydropyrido[3,2-e][1,2,4]triazolo[1,5-a]pyrazin-6-yl)amino)-N-(methyl-d3)pyridazine-3-carboxamide] |  | 6.52 to 7.52 |  | 6.00 to 6.52 | 
17 | [2H]C([2H])([2H])NC(=O)c1nnc(NC(=O)C2CC2)cc1Nc1c(F)ccc2c1N(C)Cc1nc(C)nn1-2 [Compound 98, 6-(cyclopropanecarboxamido)-4-((7-fluoro-2,5-dimethyl-4,5-dihydro-[1,2,4]triazolo[1,5-a]quinoxalin-6-yl)amino)-N-(methyl-d3)pyridazine-3-carboxamide] |  | 6.52 to 7.52 |  |  | C/D
18 | [2H]C([2H])([2H])NC(=O)c1nnc(NC(=O)NC)cc1Nc1cc(F)cc2c1N(C)Cc1nc(C)nn1-2 [Compound 103, 4-((8-fluoro-2,5-dimethyl-4,5-dihydro-[1,2,4]triazolo[1,5-a]quinoxalin-6-yl)amino)-N-(methyl-d3)-6-(3-methylureido)pyridazine-3-carboxamide] |  | 6.52 to 7.52 |  | 6.52 to 7.52 | 
19 | [2H]C([2H])([2H])NC(=O)c1nnc(NC(=O)C2CC2)cc1Nc1nccc2c1N(C)[C@@H](C)c1nc(C)nn1-2 [Compound 112, (S)-6-(cyclopropanecarboxamido)-N-(methyl-d3)-4-((2,4,5-trimethyl-4,5-dihydropyrido[3,4-e][1,2,4]triazolo[1,5-a]pyrazin-6-yl)amino)pyridazine-3-carboxamide] |  | > 7.52 |  | 6.52 to 7.52 | 
20 | [2H]C([2H])([2H])NC(=O)c1nnc(NC(=O)C2CC2)cc1Nc1nccc2c1N(C)[C@@H](C([2H])([2H])[2H])c1nn(C)nc1-2 [Compound 113, (S)-6-(cyclopropanecarboxamido)-4-((2,5-dimethyl-4-(methyl-d3)-4,5-dihydro-2H-[1,2,3]triazolo[4,5-c][1,7]naphthyridin-6-yl)amino)-N-(methyl-d3)pyridazine-3-carboxamide] |  | 6.52 to 7.52 |  | 6.52 to 7.52 | 
21 | [2H]C([2H])([2H])NC(=O)c1nnc(NC(=O)C2CC2)cc1Nc1nccc2c1N(C)[C@H](C([2H])([2H])[2H])c1nn(C)nc1-2 [Compound 114, (R)-6-(cyclopropanecarboxamido)-4-((2,5-dimethyl-4-(methyl-d3)-4,5-dihydro-2H-[1,2,3]triazolo[4,5-c][1,7]naphthyridin-6-yl)amino)-N-(methyl-d3)pyridazine-3-carboxamide] |  | > 7.52 |  | > 7.52 | 
22 | [2H]C([2H])([2H])NC(=O)c1nnc(NC(=O)[C@H]2C[C@H]2F)cc1Nc1nccc2c1N(C)Cc1nn(C)nc1-2 [Compound 115, 4-((2,5-dimethyl-4,5-dihydro-2H-[1,2,3]triazolo[4,5-c][1,7]naphthyridin-6-yl)amino)-6-((1R,2R)-2-fluorocyclopropane-1-carboxamido)-N-(methyl-d3)pyridazine-3-carboxamide] |  | > 7.52 |  | > 7.52 | 
23 | [2H]C([2H])([2H])NC(=O)c1nnc(NC(=O)[C@@H]2C[C@@H]2F)cc1Nc1nccc2c1N(C)Cc1nn(C)nc1-2 [Compound 116, 4-((2,5-dimethyl-4,5-dihydro-2H-[1,2,3]triazolo[4,5-c][1,7]naphthyridin-6-yl)amino)-6-((1S,2S)-2-fluorocyclopropane-1-carboxamido)-N-(methyl-d3)pyridazine-3-carboxamide] |  | 6.52 to 7.52 |  | 6.00 to 6.52 | 
